How the values were obtained:
[1] = xn = mol fraction of the nth substance listed; conditions: 101 kPa, Liquid
[2] = 101.33 kPa, Liquid; for speed of sound: Sing-around technique in a fixed-path interferometer

CCCCCCCO [heptan-1-ol] + CCCCOCCCC
[1]
Conditions | mass density [kg/m3]
293.15 K, x1 = 0.1017 | 773.953
293.15 K, x1 = 0.1519 | 776.565
293.15 K, x1 = 0.1998 | 779.042
293.15 K, x1 = 0.2503 | 781.671
293.15 K, x1 = 0.3495 | 786.842
293.15 K, x1 = 0.4019 | 789.598
293.15 K, x1 = 0.4529 | 792.309
293.15 K, x1 = 0.5013 | 794.907
293.15 K, x1 = 0.548 | 797.412
293.15 K, x1 = 0.6032 | 800.39
293.15 K, x1 = 0.6486 | 802.884
293.15 K, x1 = 0.7001 | 805.686
293.15 K, x1 = 0.7515 | 808.582
293.15 K, x1 = 0.7771 | 809.94
293.15 K, x1 = 0.8009 | 811.278
293.15 K, x1 = 0.8982 | 816.689
293.15 K, x1 = 0.947 | 819.42
298.15 K, x1 = 0.0513 | 767.002
298.15 K, x1 = 0.0991 | 769.571
298.15 K, x1 = 0.1526 | 772.412
298.15 K, x1 = 0.2019 | 775.005
298.15 K, x1 = 0.2506 | 777.565
298.15 K, x1 = 0.3033 | 780.366
298.15 K, x1 = 0.3498 | 782.806
298.15 K, x1 = 0.4 | 785.5
298.15 K, x1 = 0.4523 | 788.317
298.15 K, x1 = 0.4995 | 790.883
298.15 K, x1 = 0.5491 | 793.589
298.15 K, x1 = 0.6026 | 796.53
298.15 K, x1 = 0.6503 | 799.167
298.15 K, x1 = 0.6985 | 801.859
298.15 K, x1 = 0.7533 | 804.902
298.15 K, x1 = 0.8005 | 807.562
298.15 K, x1 = 0.8485 | 810.291
298.15 K, x1 = 0.8994 | 813.176
298.15 K, x1 = 0.9439 | 815.703
303.15 K, x1 = 0.0548 | 762.859
303.15 K, x1 = 0.1037 | 765.526
303.15 K, x1 = 0.1537 | 768.203
303.15 K, x1 = 0.2034 | 770.861
303.15 K, x1 = 0.2496 | 773.336
303.15 K, x1 = 0.3003 | 776.062
303.15 K, x1 = 0.3482 | 778.634
303.15 K, x1 = 0.3977 | 781.333
303.15 K, x1 = 0.4501 | 784.185
303.15 K, x1 = 0.4938 | 786.627
303.15 K, x1 = 0.5487 | 789.635
303.15 K, x1 = 0.6009 | 792.536
303.15 K, x1 = 0.6508 | 795.355
303.15 K, x1 = 0.6994 | 798.099
303.15 K, x1 = 0.7519 | 801.07
303.15 K, x1 = 0.8005 | 803.865
303.15 K, x1 = 0.851 | 806.755
303.15 K, x1 = 0.8994 | 809.543
303.15 K, x1 = 0.946 | 812.239

CCCCCCCO [heptan-1-ol]
[2]
Conditions | mass density [kg/m3] | speed of sound [m/s]
293.15 K | 822.398 | 1344
298.15 K | 818.894 | 1326.7
303.15 K | 815.357 | 1309.9

CCCCCCCCO [octan-1-ol]
[2]
Conditions | mass density [kg/m3] | speed of sound [m/s]
293.15 K | 825.183 | 1364.3
298.15 K | 821.732 | 1347.1
303.15 K | 818.248 | 1330.2

CCCCCCCCCCO [decan-1-ol] + CCCCOCCCC
[1]
Conditions | mass density [kg/m3]
293.15 K, x1 = 0.1021 | 776.363
293.15 K, x1 = 0.1496 | 779.787
293.15 K, x1 = 0.1993 | 783.289
293.15 K, x1 = 0.25 | 786.71
293.15 K, x1 = 0.2996 | 789.984
293.15 K, x1 = 0.3412 | 792.683
293.15 K, x1 = 0.3978 | 796.258
293.15 K, x1 = 0.4468 | 799.27
293.15 K, x1 = 0.4978 | 802.397
293.15 K, x1 = 0.5495 | 805.461
293.15 K, x1 = 0.6009 | 808.42
293.15 K, x1 = 0.65 | 811.195
293.15 K, x1 = 0.6993 | 813.929
293.15 K, x1 = 0.7464 | 816.506
293.15 K, x1 = 0.7946 | 819.104
293.15 K, x1 = 0.8488 | 821.951
293.15 K, x1 = 0.9004 | 824.616
293.15 K, x1 = 0.95 | 827.118
298.15 K, x1 = 0.0516 | 768.307
298.15 K, x1 = 0.1006 | 772.051
298.15 K, x1 = 0.1498 | 775.68
298.15 K, x1 = 0.2012 | 779.315
298.15 K, x1 = 0.2522 | 782.834
298.15 K, x1 = 0.2996 | 786.011
298.15 K, x1 = 0.35 | 789.331
298.15 K, x1 = 0.3994 | 792.479
298.15 K, x1 = 0.4479 | 795.536
298.15 K, x1 = 0.4981 | 798.656
298.15 K, x1 = 0.5512 | 801.843
298.15 K, x1 = 0.5993 | 804.66
298.15 K, x1 = 0.6492 | 807.539
298.15 K, x1 = 0.6995 | 810.378
298.15 K, x1 = 0.7501 | 813.185
298.15 K, x1 = 0.7981 | 815.763
298.15 K, x1 = 0.8498 | 818.511
298.15 K, x1 = 0.9001 | 821.147
298.15 K, x1 = 0.9498 | 823.681
303.15 K, x1 = 0.0509 | 763.957
303.15 K, x1 = 0.1009 | 767.841
303.15 K, x1 = 0.1503 | 771.536
303.15 K, x1 = 0.1994 | 775.085
303.15 K, x1 = 0.25 | 778.691
303.15 K, x1 = 0.2996 | 782.028
303.15 K, x1 = 0.3498 | 785.36
303.15 K, x1 = 0.3992 | 788.589
303.15 K, x1 = 0.4451 | 791.54
303.15 K, x1 = 0.4944 | 794.601
303.15 K, x1 = 0.5509 | 798.05
303.15 K, x1 = 0.5921 | 800.526
303.15 K, x1 = 0.6514 | 803.989
303.15 K, x1 = 0.6896 | 806.226
303.15 K, x1 = 0.7493 | 809.528
303.15 K, x1 = 0.7963 | 812.111
303.15 K, x1 = 0.8475 | 814.866
303.15 K, x1 = 0.899 | 817.595
303.15 K, x1 = 0.9474 | 820.099

CCCCCCCCCCO [decan-1-ol]
[2]
Conditions | mass density [kg/m3] | speed of sound [m/s]
293.15 K | 829.601 | 1396.2
298.15 K | 826.198 | 1378.9
303.15 K | 822.767 | 1361.7

From the NIST ThermoML archive (doi:10.1016/j.jct.2008.06.001)
